From US20260028332A1, “POLYMORPHIC FORM OF GLP-1R AGONIST, PREPARATION METHOD THEREFOR AND USE THEREOF” (MINDRANK THERAPEUTICS (SUZHOU) NEW DRUG RESEARCH AND …, priority 2022, published 2026)
Converted amounts (≈) assume the structure as drawn.

Legend:
Type in all cases: physicochemical
[1] = Solid state stability study of polymorph (purity by HPLC and crystal form change after 7 days storage); details: for purity change, long-term storage condition: 25° C./60% RH; for purity change, long-term storage condition / purity change, accelerated condition / purity change, high-temperature condition: 7 days; for purity change, high-temperature condition: 60° C., RH<30%; for crystal form change after storage: 7 days in long-term storage, accelerated and high-temperature conditions; for overall solid state stability: 7 days storage study, conclusion
Experimental: Crystal form 2A of compound II was preserved in long-term storage (25° C./60% RH), accelerated (40° C./75% RH), and high-temperature (60° C., RH<30%) conditions for 7 days, and tested for purity and crystal form change by HPLC, so as to examine the stability of the solids.

[2] = Hygroscopic behavior test by dynamic vapor sorption (DVS); details: for solid form change after DVS / hygroscopicity / Sample weight change at 80% RH (%): 25° C.; for solid form change after DVS: 0-90% RH; for hygroscopicity: 0-90% RH adsorption curve, at 80% RH; for Whether the crystal form is changed: after DVS test at 25° C.
From the text: The experimental method for characterizing an acid salt or a base salt of compound III by dynamic vapor sorption (DVS) was as follows: A small amount of a powder of a polymorph of compound III was taken and placed into a precise sample tray that matches the instrument. After the sample was loaded, the sample tray was sent into the instrument for analysis. In the present disclosure, the instrument model used in the dynamic vapor sorption analysis was Intrinsic PLUS; the experimental parameter was set as follows: a constant temperature of 25° C. was set; the mass percent change rate per unit time (dm/dt)=0.02%/min was used as a criterion for determining that a balance is achieved; the program humidity change cycle was set as follows: the initial relative humidity was 0%, and the endpoint relative humidity was 90%.
The DVS plot of the amorphous solid of the compound is shown in FIG. 67, and the DVS plot of crystal form D of the compound is shown in FIG. 68 The results are shown in the table below
The inventors assessed the stability risk of samples under varying humidity at 25° C. using the dynamic vapor sorption method and conducted the DVS test on the representative crystal form 2A of compound II to evaluate the hygroscopicity of the crystal form of the compound.

[3] = Equilibrium solubility study of polymorph in biological media (supernatant concentration; residual solid by XRPD); details: for Whether the crystal form is changed: residual solid by XRPD after 24 h at 37±2° C.; for solubility thermodynamic at 24 h: 37 °C, thermodynamic from solid, suspension ~10 mg/mL, 37±2° C.
[4] = Solid state stability study of polymorph (purity by HPLC and crystal form change after 7 days storage); details: for Purity (%) / Initial purity (%): HPLC; for Initial purity (%): before storage
[5] = Equilibrium solubility study of polymorph in biological media (supernatant concentration; residual solid by XRPD); details: for crystal form change of the solid in FaSSGF: ~10 mg/mL suspension; for crystal form change of the solid in FaSSGF / crystal form change of the solid in other media: solid tested by XRPD; for Whether the crystal form is changed: residual solid by XRPD after 24 h at 37±2° C.; for stability in biological media compared with the amorphous solid: H2O; for crystal form change of the solid in other media: media other than FaSSGF (H2O, FaSSIF, FeSSIF)
Experimental: (§1) In the tests, the solids were suspended in corresponding buffers to formulate suspensions (˜10 mg/mL), and the suspensions were mixed at 37±2° C. After 24 h, samples of the suspensions were taken. The supernatant was filtered, and the concentration was determined. The solid was tested by XRPD.
as §1, with “Crystal form 2A of compound II was tested for its equilibrium solubility in water (H2O), fasted state simulated gastric fluid (FaSSGF), fasted state simulated intestinal fluid (FaSSIF), and fed state simulated intestinal fluid (FeSSIF). In” for “In”

[6] = 25° C./60% RH, 7 days (long-term storage), compound I
[7] = 40° C./75% RH, 7 days (accelerated), compound I
[8] = 60° C., 7 days (high-temperature, RH<30%), compound I
[9] = FaSSGF, FaSSIF, FeSSIF, 37±2° C., 24 h
[10] = 25° C./60% RH, 7 days (long-term storage), compound II
[11] = 60° C., 7 days (high-temperature, RH<30%), compound II

purity change, long-term storage condition ([1]; HPLC)	purity change, accelerated condition ([1]; 40° C./75% RH, HPLC)	purity change, high-temperature condition ([1]; HPLC)	solid form change after DVS [2]	hygroscopicity [2]	hygroscopicity ([2]; DVS, compound I)	Sample weight change at 80% RH (%) ([2]; DVS, compound I)	Whether the crystal form is changed ([2]; compound I)	Whether the crystal form is changed ([3]; H2O, polymorph of compound I)	Purity (%) [4, 6] [%]	Crystal form change [4, 6]	Purity (%) [4, 7] [%]	Crystal form change [4, 7]	Purity (%) [4, 8] [%]	Crystal form change [4, 8]	Initial purity (%) ([4]; compound I)	crystal form change of the solid in FaSSGF ([5]; FaSSGF, 37±2° C., 24 h)	stability in biological media compared with the amorphous solid [5, 9]	crystal form change of the solid in other media ([5]; 37±2° C., 24 h)	SMILES	crystal form change after storage [1]	also measured
no significant purity changes	significant degradation	significant degradation	no solid form changes were observed	slightly hygroscopic	Slightly hygroscopic	0.90	No	No	98.94	No	95.86	No	89.15	No	98.98	–	–	–	O=C(O)c1ccc2nc(CN3CCC(Oc4cccc(COc5ccc(Cl)cc5F)n4)CC3)n(C[C@@H]3CCO3)c2c1 [amorphous solid of compound I, (S)-2-((4-((6-((4-chloro-2-fluorophenoxy)methyl)pyridin-2-yl)oxy)piperidin-1-yl)methyl)-1-(oxetan-2-ylmethyl)-1/-benzo[d]imidazole-6-carboxylic acid]	–	–
no significant purity changes	no significant purity changes	no significant purity changes	no solid form changes were observed	slightly hygroscopic	–	–	–	–	–	–	–	–	–	–	–	converted into a hydrochloride salt	significantly superior	no crystal form changes	N#Cc1ccc(OCc2cccc(OC3CCN(Cc4nc5ccc(C(=O)O)cc5n4C[C@@H]4CCO4)CC3)n2)c(F)c1 [crystal form 2A of compound II, (S)-2-((4-((6-((4-cyano-2-fluorophenoxy)methyl)pyridin-2-yl)oxy)piperidin-1-yl)methyl)-1-(oxetan-2-ylmethyl)-1H-benzo[d]imidazole-6-carboxylic acid]	no significant purity changes or significant crystal form changes	Whether the crystal form is changed ([5]; FaSSIF, polymorph of compound II): No; Whether the crystal form is changed ([5]; FeSSIF, polymorph of compound II): No; solubility thermodynamic at 24 h ([5]; fasted state simulated gastric fluid (FaSSGF), 37 °C, fassgf or other biorelevant, thermodynamic from solid, FaSSGF, suspension ~10 mg/mL, 37±2° C., 24 h, polymorph of compound II): 180 µg/mL (≈ 315 µM); Purity (%) ([1]; 40° C./75% RH, 7 days (accelerated), HPLC, compound II): 97.38%; Crystal form change ([1]; 40° C./75% RH, 7 days (accelerated), compound II): No; overall solid state stability [1]: good stability; hygroscopicity ([2]; DVS, compound II): Slightly hygroscopic; Sample weight change at 80% RH (%) ([2]; DVS, compound II): 0.71%; Whether the crystal form is changed ([2]; compound II): No; Whether the crystal form is changed ([3]; H2O, polymorph of compound II): No; solubility thermodynamic at 24 h ([3]; fasted state simulated intestinal fluid (FaSSIF), FaSSIF, polymorph of compound II): 40 µg/mL (≈ 70 µM); solubility thermodynamic at 24 h ([3]; fed state simulated intestinal fluid (FeSSIF), FeSSIF, polymorph of compound II): 190 µg/mL (≈ 332 µM); solubility thermodynamic at 24 h ([3]; water, H2O, polymorph of compound II): 90 µg/mL (≈ 157 µM); Purity (%) [4, 10]: 97.65%; Crystal form change [4, 10]: No; Purity (%) [4, 11]: 97.63%; Crystal form change [4, 11]: No; Initial purity (%) ([4]; compound II): 97.71%
no significant purity changes	slightly reduced purities	slightly reduced purities	no solid form changes were observed	slightly hygroscopic	Slightly hygroscopic	1.08	No	No	99.10	No	98.98	No	98.61	No	99.15	converted into a hydrochloride salt	significantly superior	no crystal form change was observed	O=C(O)c1ccc2nc(CN3CCC(Oc4cccc(COc5ccc(Cl)cc5F)n4)CC3)n(C[C@@H]3CCO3)c2c1 [crystal form D of compound I, (S)-2-((4-((6-((4-chloro-2-fluorophenoxy)methyl)pyridin-2-yl)oxy)piperidin-I-yl)methyl)-1-(oxetan-2-ylmethyl)-1H-benzo[d]imidazole-6-carboxylic acid]	no significant crystal form changes	solubility in the FaSSIF system ([5]; FaSSIF, 37±2° C., 24 h, compared with amorphous solid): significantly improved solubility; overall solid state stability [1]: significantly superior; Whether the crystal form is changed ([3]; FaSSIF, polymorph of compound I): No; Whether the crystal form is changed ([3]; FeSSIF, polymorph of compound I): No
